Results from PMC12040169 (PLOS Biology, 2025).

Experiment: in vitro
Details: human, hela cells, % viability

Going from CN1CCN(c2ccc(-c3cncc(NC4CCOCC4)n3)cn2)CC1 [CBK037229] to O=C(c1cnc2cc(C(F)(F)F)ccc2c1O)N1CCN(c2ccccn2)CC1 [CBK107431], the viability at 28.5 h, 10 µM falls from 105% to 94.8%.

Going from O=C(Nc1ccc(OCc2ccoc2)cc1C(=O)O)c1ccc(Cl)cc1Cl [CBK003768D] to O=C(Nc1ccc(Cl)c(Cl)c1)c1cnc2sccn2c1=O [CBK287449], the viability at 28.5 h, 10 µM falls from 87.5% to 83.3%.

Compared with COC(=O)c1cn(Cc2ccccc2)nn1 [CBK073903], COc1cc(NC(=O)CCc2ccccc2)nc(OC)n1 [CBK072282] is lower in viability at 28.5 h, 10 µM: 98.1% for the first, 79.5% for the second.

First: O=C(CSc1nccn1-c1ccccc1)Nc1ccc(F)cc1 [CBK287399]
Second: COc1ccc(C)cc1NC(=O)CN(c1ccccc1)S(=O)(=O)c1ccc(F)cc1 [CBK268223]
The viability at 28.5 h, 10 µM of the first is lower: 76.1% for the first, 99.1% for the second.

Compared with Cn1cc(C2CNCCN2C(=O)c2csc3ccccc23)cn1 (centres unmarked) [CBK304324C], CN(CCN1CCCCC1)C(=O)C1CC(=O)Nc2ccccc21 (centres unmarked) [CBK282729] is lower in viability at 28.5 h, 10 µM: 108% for the first, 105% for the second.

Going from COc1cc2c(cc1/C=C1/S/C(=N\c3ccccc3)N(CCCN3CCOCC3)C1=O)OCO2 [CBK265631] to Cc1cc(NC(=O)c2ccc(S(=O)(=O)N3CCOCC3)cc2)nc2c1c(=O)oc1ccccc12 [CBK291134], the viability at 28.5 h, 10 µM rises from 78.7% to 106%.

First: O=C(NC1CCN(c2ncccn2)CC1)c1cccnc1O [CBK297739]
Second: CC(CC(=O)N1CCCC(c2cc3cccnc3[nH]2)C1)n1cccn1 (centres unmarked) [CBK284996]
The viability at 28.5 h, 10 µM of the first is higher: 99.7% for the first, 86.2% for the second.

First: Oc1nc(CSc2nnc(-c3ccncc3)n2-c2ccccc2)nc2ccccc12 [CBK264851]
Second: O=C(Cc1ccc(-c2ccccc2)cc1)NCc1cccnc1 [CBK262591]
The viability at 28.5 h, 10 µM of the first is higher: 97.5% for the first, 86.4% for the second.

First: Cc1nc(-c2ccccc2)c(CC(=O)N(C)CCN(C)C)s1 [CBK282725]
Second: CCOc1ccc2cc(C3CC(c4ccccc4)=NN3C(=O)CCC(=O)O)c(Cl)nc2c1 (centres unmarked) [CBK296097]
The viability at 28.5 h, 10 µM of the first is lower: 83.3% for the first, 114% for the second.

Going from CSc1nnc(CC2CCN(C(=O)Cn3nnnc3N)CC2)n1C [CBK306520] to O=C(c1cc2c([nH]1)CCCC2)N1CCC(CCN2CCOCC2)CC1 [CBK281869], the viability at 28.5 h, 10 µM falls from 97.6% to 88.9%.

Compared with CN(c1ccc(C(=O)Nc2ccc(S(=O)(=O)N3CCCC3)cc2)cc1)S(=O)(=O)c1ccccc1 [CBK266896], O=S(=O)(/N=C(/NS(=O)(=O)c1cccc2ccccc12)c1ccccc1)c1ccccc1 [CBK263105] is higher in viability at 28.5 h, 10 µM: 102% for the first, 112% for the second.

First: COc1ccc(/C(N)=N/OC(=O)C(C)Oc2ccc(Br)cc2)cc1OC (centres unmarked) [CBK266807]
Second: COc1ccc(C2=NNC(c3ccc(C(=O)O)cc3)C2)cc1 (centres unmarked) [CBK287167]
The viability at 28.5 h, 10 µM of the first is higher: 95.6% for the first, 78% for the second.

Compared with Cc1cc(C(=O)Nc2sc(C)c(C)c2C(=O)NCc2cccnc2)no1 [CBK268134], CCOC(=O)C(NCc1nc(-c2cccc(C(F)(F)F)c2)no1)C(C)C (centres unmarked) [CBK305445] is lower in viability at 28.5 h, 10 µM: 100% for the first, 93% for the second.

First: Nc1nc2c(ccn2[C@H]2C[C@@H](O)[C@@H](CO)O2)c(=O)[nH]1 [CBK201238]
Second: O=C(CSc1nnnn1C1CC2CCC1C2)Nc1ccnc2ccccc12 (centres unmarked) [CBK267901]
The viability at 28.5 h, 10 µM of the first is higher: 100% for the first, 89.4% for the second.

Compared with CC(C)CCN1CCn2nc(CNc3cnccn3)cc2C1 [CBK307540], O=C(c1ccco1)N1CCN(C(=S)Nc2ccc(S(=O)(=O)Nc3ncccn3)cc2)CC1 [CBK267096] is higher in viability at 28.5 h, 10 µM: 85.8% for the first, 104% for the second.

First: N#Cc1cnc(NCc2ccccc2)nc1N [CBK015764]
Second: Nc1ncc2cc(C(F)(F)F)ccc2n1 [CBK100705]
The viability at 28.5 h, 10 µM of the first is lower: 90% for the first, 107% for the second.

Compared with CC(C)(C)S(=O)(=O)c1ccc(C(=O)O)s1 [CBK260880], COC(=O)[C@@H]1CN(C(=O)Nc2ccccc2)CCN1C(=O)C1CCCCC1 [CBK289607] is lower in viability at 28.5 h, 10 µM: 91.4% for the first, 91% for the second.

Compound O=[N+]([O-])c1cc(F)ccc1Oc1cccc(Cl)c1Cl [CBK002604] has a viability at 28.5 h, 10 µM of 112%.
